Values joined by “and” are separate entries in the source; they are usually repeats but may differ in a detail not shown here. Equal entries are not always repeated. “Also recorded” adds a separate entry of the source. Square brackets hold non-standard residues; d marks the D form. pGlu = O=C1CC[C@@H](C(=O)O)N1
Assays:
9 L gliosarcoma cells = experiment: 9 L gliosarcoma implantation model, delayed treatment; assay type: in vivo, CD Fisher rats
Protocol: In accordance with the accordance with the protocol of Lampson et al. Cancer Res. 53:176-82:1993 described above, CD Fisher rats were implanted with 9 L gliosarcoma cells transfected with the LacZ gene by use of a Hamilton syringe. 100,000 cells in 10 microliters were injected into the right caudate.
ID with a short plasma half life, another receiving Peptide IW (pegylated form of Peptide IC) and the third group received saline. Peptides were given at a dose of 25 nmole/kg body weight. Three weeks later, the animals were sacrificed and serial 1 mm thick coronal sections cut through the brain and incubated with 5-bromo-4-chloro-3-indolyl-[beta]-D-galactopyranoside (Xgal). Tumor cells (containing the LacZ gene) metabolized Xgal into a dark blue stain, localizing the extent of tumor. High resolution digital images were obtained and the areas stained blue determined using planimetric methodology. Data is expressed as total area of tumor infiltration.

[1] = tested on: middle cerebral artery occlusion; experiment: Middle cerebral artery occlusion model; assay type: in vivo, Sprague Dawley rats; conditions: 2 μg/kg bw i.v. upon reperfusion, then three injections at 2-hour intervals
Protocol: Sprague Dawley rats (8 per group) are subjected to the following MCAO protocol Surgery was performed in accordance with the teachings of Brines et al, 2000, PNAS USA 97:10526-10531 (hereby incorporated by reference in its entirety. Briefly, the rats are anesthetized with chloral hydrate (400 mg/kg-bw, i.p.), the carotid arteries were visualized, and the right carotid was occluded by two sutures and severed. A burr hole adjacent and rostral to the right orbit allowed visualization of the middle cerebral artery (“MCA”), which was cauterized distal to the rhinal artery. To produce a penumbra (border zone) surrounding this fixed MCA lesion, the contralateral carotid artery was occluded for 1 hour by using […] provided by a fine forceps and then re-opened.
The rats were administered saline, Peptide ID as a single i.v. dose (2 μg/kg bw), or Peptide IX, […], SEQ ID NO: 301), a scrambled version of Peptide IC, SEQ ID NO: 281, as a single Lv. dose (2 μg/kg bw) upon reperfusion, followed by three additional injections at 2-hour intervals. For assessment of injury, rats are subjected to behavioral testing or the volume of the lesion is determined by tetrazolium staining of brain sections performed 24 hours post surgery in accordance with the previously noted protocol.
The volume of the lesion was then determined by tetrazolium staining of brain sections performed 24 hours post surgery.
Rats were also tested in a foot fault behavioral protocol. Rats were tested on an elevated stainless steel grid floor 30 cm×30 cm with grid size of 30 mm according to the protocol of Markgraf et al., 1992, Brain Research 575:238-246 (hereby incorporated by reference in its entirety). When placed on the grid, a rat would attempt to move around and occasionally place a foot, rather than on the grid, through a grid opening (“foot fault”). The number of foot faults was measured for a 1 minute period.
The number of foot faults is indicative of the cognitive impairment of the rats due to the MCAO, the fewer the number of foot faults the less cognitive impairment.

histamine = experiment: Histamine induced wheal formation, peptide given at time of challenge; assay type: in vivo, Sprague-Dawley rats; conditions: 30 μg/kg at time of histamine challenge
Protocol: Under isoflurane anesthesia, 12 Sprague-Dawley rats' abdomens were shaved and depilated. Each rat was then injected intravenously (via internal jugular) with a dilute solution of Evans Blue (30 mg/ml in saline, 1 ml/kg bw). After 5 minutes, 6 small doses of histamine (Histamine diphosphate, 20 microliters administered intradermally) in a rectangular pattern on each rat's abdomen. After fifteen minutes, when the wheal reaches its maximum size the wheal is photographed and the blister area was determined by digital planimetry. To test the efficacy of various peptides, the peptide of interest was administered to the rats intravenously shortly after the histamine injection.
Rats received either saline, Peptide IY (30 μg/kg), Peptide ID (30 μg/kg), or Peptide IW (30 μg/kg) at time of histamine challenge.
Rats received either saline, peptide JA (30 μg/kg), peptide IZ (30 μg/kg), peptide IW (30 μg/kg) or peptide ID (30 μg/kg) at time of histamine challenge.

[2] = tested on: 9 L/LacZ gliosarcoma cells; experiment: Cortical tumor implant; assay type: in vivo, CD fisher rats; conditions: 30 μg/kg i.p. daily for 25 days following implantation; FIG. 12
Protocol: A cortical tumor implant study was conducted in accordance with the protocol of Lampson et al. Cancer Res. 53:176-82:1993 to determine the effect of Peptide ID on the growth of the tumor.
In accordance with the protocol, male CD fisher rats were anesthetized and their right scalp was shaved and washed with disinfectant. A small incision was then made in the scalp overlying the right temporal cerebral cortex. A 1 mm hole was drilled through the calvarium, without puncturing the dura matter. Under aseptic conditions, living 50,000 9 L/LacZ gliosarcoma cells in 5 μl was slowly injected through a 22 gauge needle attached to a precision Hamilton syringe. Bone wax was then applied to the trephanation site, the skin was sutured and a prophylactic dose of antibiotic was administered i.p. Control rats were provided with saline injections i.p. daily. The rats treated with Peptide ID received daily injections of 30 μg/kg i.p. daily for a period of 25 days. At 25 days following implantation, the animal was anesthetized and the brain perfused-fixed with 2% paraformaldehyde. The brain was then removed and cut on a brain matrix device into coronal sections 1 mm thick and the extent of tumor mass was determined by planimetric methodology.

UT-7epo cells = experiment: UT-7epo proliferation/survival assay of erythropoietic potency; assay type: cell-based, human; conditions: 5 pM to 50 nM, 48 h incubation, WST-I reagent; FIG. 1
Protocol: The cells were maintained in 75 cm^2 flasks with 20 ml of medium/flask in a humidified incubator with 5% CO2 at 37° C. for 48 h. On day two of the assay, i.e., at 48 h, the cells were transferred from the flask into a 50-ml conical tube and centrifuged at 1,000 rpm for 5 minutes at room temperature. The supernatant was discarded and the cells were washed two times with 10 ml of starvation media (3% donor calf serum, 4 mM L-glutamine). The cells were then re-suspended in starvation media, using up and down pipette action to obtain a single cell suspension. The re-suspended cells were diluted with starvation media to obtain a density of 4×10^5 cells/ml, and plated at a total culture volume of 10 ml per 25 cm^2 flask. Following a 4 h incubation, the cells were again transferred to a 50-ml conical tube.
A series of 10 fold dilutions in RPMI 1640 medium containing 3% serum was used to generate concentrations of test compounds from 5 pM to 50 nM. Following a further for 48 h incubation, a solution of […] WST-I Cell Proliferation Reagent (Roche) was added to each well, and incubated for 1 hour at 37° C. in CO2. After mixing for 1 minute, the plate was read in a plate reader (absorption at 450 nm, subtracted from background absorption at 650 nm).

## UEQLERALNSS ([pGlu]EQLERALNSS-OH; also: acetate/ammonium mixed salt) [Peptide ID, first glutamine replaced with pyroglutamate]
9 L gliosarcoma cells; 25 nmole/kg i.p. daily starting two weeks after implantation, three weeks, FIG. 13, 14
  tumor size (total area of tumor infiltration): smaller than the saline group, it was not significantly different; also recorded: reduced the size of tumor
9 L gliosarcoma cells; daily treatment begun immediately after implantation, FIG. 14
  tumor size: substantially smaller tumors; also recorded: reduction in size of the tumor
[1]; 24 hours post surgery, tetrazolium staining
  infarct volume (volume of lesion): 225±20 mm^3
[1]; after MCAO, FIG. 5
  number of foot faults in 1 minute period: 11.2±1.1 foot faults
histamine; FIG. 18
  wheal area (lesion area): about 0.35 cm^2
histamine; FIG. 19
  wheal area (lesion area): ~0.35 cm^2 and 0.4 cm^2
[2]
  relative volume of cortical tumor: no growth in the tumor volume; also recorded: no increase in the relative volume of the tumor
UT-7epo cells
  proliferation of UT-7 EPO cells (erythropoietic activity): no erythropoeitic activity; also recorded: did not result in proliferation of the cells

Source: patent US9580465B2, “Tissue protective peptides and peptide analogs for preventing and treating diseases and disorders associated with tissue damage” (ARAIM PHARMACEUTICALS, INC., priority 2008, dated 2017)
